Earlier results as cited in patent US20090247521A1, “SOLUBLE EPOXIDE HYDROLASE INHIBITORS FOR THE TREATMENT OF ENDOTHELIAL DYSFUNCTION” (Arete Therapeutics, Inc., priority 2007, published 2009).

Tested on: thoracic aortic rings
Conditions: aortic rings from DOCA-salt hypertensive rats that received the s-EH inhibitor, compared with vehicle and normotensive controls

For `CCCCCCCCCCCCNC(=O)NC12CC3CC(CC(C3)C1)C2` [ADU, adamantyl dodecyl urea], the acetylcholine-induced endothelium-dependent vasorelaxation is given as “augmented acetylcholine-induced endothelium-dependent vasorelaxation, similar to that of the normotensive control animals”.
